What was measured:
full-length human RORγt = full-length human RORγt (Homo sapiens (Human), UniProt P51449); test: RORγt (full-length human) reporter assay, conditions A or B; assay type: cell-based; settings: for inhibition at 3 µM: 3 μM compound concentration (*); for inhibition at 3 µM / inhibition at 1 µM: read-out: RORγt (FL) Reporter Assay A or B, % inhibition; for IC50: HEK293T cells, read-out: RORγt (FL) Reporter Assay A or B, IC50; for inhibition at 1 µM: 1 μM compound concentration (***); for inhibition at 0.67 µM: read-out: RORγt (FL) Reporter Assay A or B, % inhibition, 0.67 μM compound concentration (****)
Text: RORγt (Full-Length Human) Reporter Assay:
Cells used in this assay were transiently co-transfected with three different plasmids, one expressing the GAL4-DNA binding domain (DBD)-RORγt fusion protein under control of a CMV promoter (NH2-Gal4-DBD:RORC—COOH in pCMV-BD, Stratagene #211342), and two reporter plasmids—the firefly luciferase reporter under control of a GAL4 promoter (pFR-Luc 2×GAL4) and Renilla luciferase reporter under control of CMV promoter (pRL-CMV, Promega #E2261). […] HEK293T cells were plated at 35,000 per well in 96-well plate in medium of DMEM with 10% FBS. After 18-22 hours incubation, the transfection was carried out by using a PEI solution with 170.5 ng total DNA/well (50 ng pCMV-BD-ROR plus 20 ng of pFR-Luc reporter and 0.5 ng of pRL-CMV reporter plus 100 ng Carrier DNA (Clontech #630440) for each well). 4-6 hours after transfection, cells were treated with compounds for overnight in the medium with final concentration of FBS 1.3% and DMSO 0.1%. After overnight (16 to 20 hours) incubation, media were removed and cells were lysed with […] Glo Lysis Buffer (Promega) for 10-15 minutes followed by 10 minute incubation with 50 μL Dual Glo reagent (Promega) at room temperature. Firefly luciferase luminescence was measured using a BMG Pherastar plate reader. To each well, 50 μL Stop and Glo reagent was added and incubated for 10 minutes at room temperature. Renilla luminescence was measured using a BMG Pherastar plate reader. To calculate the effect of compounds on RORγt activity, firefly values were normalized against values of DMSO only and values of reference compound at saturating concentration, then further normalized against Renilla signals. IC50s were generated by plotting final Renilla normalized data against compound concentration and percent inhibition was calculated against DMSO control.
Cells used in this assay were transiently co-transfected with three different plasmids, one expressing the GAL4-DNA binding domain (DBD)-RORγt fusion protein under control of a CMV promoter (NH2-Gal4-DBD:RORC—COOH in pCMV-BD, Stratagene #211342), and two reporter plasmids—the firefly luciferase reporter under control of a GAL4 promoter (pFR-Luc 2×GAL4) and Renilla luciferase reporter under control of CMV promoter (pRL-CMV, Promega #E2261). […] HEK293T cells were plated at 8750 cells per well in 384-well plate in medium of DMEM with 10% FBS. After 18-22 hours incubation, the transfection was carried out by using a PEI solution with 42.6 ng total DNA/well (12.5 ng pCMV-BD-ROR plus 5 ng of pFR-Luc reporter and 0.125 ng of pRL-CMV reporter plus 25 ng Carrier DNA (Clontech #630440) for each well). 4-6 hours after transfection, cells were treated with compounds for overnight in the medium with final concentration of FBS 1.3% and DMSO 0.1%. After overnight (16 to 20 hours) incubation, media were removed and cells were lysed with 20 μL Glo Lysis Buffer (Promega) for 10-15 minutes followed by 10 minute incubation with 20 μL Dual Glo reagent (Promega) at room temperature. Firefly luciferase luminescence was measured using a BMG Pherastar plate reader. To each well, 20 μL Stop and Glo reagent was added and incubated for 10 minutes at room temperature. Renilla luminescence was measured using a BMG Pherastar plate reader. To calculate the effect of compounds on RORγt activity, firefly values were normalized against values of DMSO only and values of reference compound at saturating concentration, then further normalized against Renilla signals. IC50s were generated by plotting final Renilla normalized data against compound concentration and percent inhibition was calculated against DMSO control.

[1] = molecular target: human RORγt ligand binding domain (RORγt LBD) (Homo sapiens (Human), UniProt P51449); test: RORγt ThermoFluor assay
Text: ThermoFluor® is a fluorescence based assay that estimates ligand binding affinities by measuring the effect of a ligand on protein thermal stability (Pantoliano, M. W., Petrella, E. C., Kwasnoski, J. D., Lobanov, V. S., Myslik, J., Graf, E., Carver, T., Asel, E., Springer, B. A., Lane, P., and Salemme, F. R. (2001) High-density miniaturized thermal shift assays as a general strategy for drug discovery. J Biomol Screen 6, 429-40, and Matulis, D., Kranz, J. K., Salemme, F. R., and Todd, M. J. (2005) Thermodynamic stability of carbonic anhydrase: measurements of binding affinity and stoichiometry using ThermoFluor. Biochemistry 44, 5258-66). This approach is applicable to a wide variety of systems, and rigorous in theoretical interpretation through quantitation of equilibrium binding constants (KD).
The shift in the melting point described as a ΔTm is proportional to the concentration and affinity of the ligand.
RORγt ThermoFluor® Assay Construct
Nucleotides 850-1635 (SEQ ID NO:2) coding for the wild type human RORγt ligand binding domain (RORγt LBD) were cloned into the pHIS 1 vector, a modified pET E. coli expression vector (Accelagen, San Diego), containing an in-frame N-terminal His-tag and a TurboTEV protease cleavage site (ENLYFQG, SEQ ID NO:3) upstream of the cloned insert sequence. The amino acid sequence for the RORγt construct used in the Thermofluor® assay is shown as SEQ ID NO:4.
ThermoFluor® experiments were carried out using instruments owned by Janssen Research and Development, L.L.C. through its acquisition of 3-Dimensional Pharmaceuticals, Inc. 1,8-ANS (Invitrogen) was used as a fluorescent dye. Protein and compound solutions are dispensed into black 384-well polypropylene PCR microplates (Abgene) and overlayed with silicone oil (1 μL, Fluka, type DC 200) to prevent evaporation.
Bar-coded assay plates are robotically loaded onto a thermostatically controlled PCR-type thermal block and then heated at a typical ramp-rate of 1° C./min for all experiments. Fluorescence was measured by continuous illumination with UV light (Hamamatsu LC6) supplied via fiber optic and filtered through a band-pass filter (380-400 nm; >6 OD cutoff). Fluorescence emission of the entire 384-well plate was detected by measuring light intensity using a CCD camera (Sensys, Roper Scientific) filtered to detect 500±25 nm, resulting in simultaneous and independent readings of all 384 wells. Images were collected at each temperature, and the sum of the pixel intensity in a given area of the assay plate was recorded versus temperature. Reference wells contained RORγt without compounds, and the assay conditions were as follows: • 0.065 mg/mL RORγt • 60 μM 1,8-ANS • 100 mM Hepes, pH 7.0 • 10 mM NaCl • 2.5 mM GSH • 0.002% Tween-20
Project compounds were arranged in a pre-dosed mother plate (Greiner Bio-one) wherein compounds are serially diluted in 100% DMSO by 1:2 from a high concentration of 10 mM over 12 columns within a series (column 12 is a reference well containing DMSO, no compound). The compounds were robotically dispensed directly into assay plates (1×=46 nL) using a Hummingbird capillary liquid handling instrument (Digilab). Following compound dispense, protein and dye in buffer was added to achieve the final assay volume of 3 μL, followed by 1 μL of silicone oil.
The binding affinity was estimated as described previously (Matulis, D., Kranz, J. K., Salemme, F. R., and Todd, M. J. (2005) Thermodynamic stability of carbonic anhydrase: measurements of binding affinity and stoichiometry using ThermoFluor®. Biochemistry 44, 5258-66) using the following thermodynamic parameters of protein unfolding: […]

full-length human RORγt, sequence (P51449 other isoform, or with tags, fused parts or gaps): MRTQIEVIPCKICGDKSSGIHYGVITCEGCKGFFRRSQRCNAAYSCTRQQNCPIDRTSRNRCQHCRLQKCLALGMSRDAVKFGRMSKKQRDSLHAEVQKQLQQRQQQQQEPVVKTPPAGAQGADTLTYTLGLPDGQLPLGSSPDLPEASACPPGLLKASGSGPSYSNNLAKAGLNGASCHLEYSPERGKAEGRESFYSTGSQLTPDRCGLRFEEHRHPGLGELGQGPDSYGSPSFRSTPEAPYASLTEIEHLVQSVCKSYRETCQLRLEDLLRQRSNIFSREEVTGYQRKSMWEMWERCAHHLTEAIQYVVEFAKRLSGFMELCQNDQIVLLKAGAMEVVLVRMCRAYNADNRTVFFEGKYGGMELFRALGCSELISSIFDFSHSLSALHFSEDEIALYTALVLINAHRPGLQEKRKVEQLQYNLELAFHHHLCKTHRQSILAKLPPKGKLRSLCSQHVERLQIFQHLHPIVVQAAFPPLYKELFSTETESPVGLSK
human RORγt ligand binding domain (RORγt LBD), sequence (P51449 other isoform, or with tags, fused parts or gaps): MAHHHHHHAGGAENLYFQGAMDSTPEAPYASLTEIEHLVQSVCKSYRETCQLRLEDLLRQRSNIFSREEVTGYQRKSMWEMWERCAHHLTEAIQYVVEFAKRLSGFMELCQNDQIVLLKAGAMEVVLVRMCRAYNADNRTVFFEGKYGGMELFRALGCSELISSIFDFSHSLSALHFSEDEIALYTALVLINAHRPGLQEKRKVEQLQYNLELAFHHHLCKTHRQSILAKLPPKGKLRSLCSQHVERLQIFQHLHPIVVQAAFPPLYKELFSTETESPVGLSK

## CCc1nc(C(=O)NC[C@]2(O)CC[C@@H](S(C)(=O)=O)CC2)c(Cl)n1-c1ncc(C[C@H](C)C(F)(F)F)cc1OC(F)F (single isomer, unassigned) [Example 71, 5-Chloro-1-(3-(difluoromethoxy)-5-((S*)-3,3,3-trifluoro-2-methylpropyl)pyridin-2-yl)-2-ethyl-N-(((1s,4R)-1-hydroxy-4-(methylsulfonyl)cyclohexyl)methyl)-1H-imidazole-4-carboxamide]
full-length human RORγt
  inhibition at 3 µM: 90%
  IC50: 160 nM
[1]
  Kd: 28 nM

## CCc1nc(C(=O)NC[C@H]2CC[C@H](S(C)(=O)=O)CC2)c(Cl)n1-c1ncc(C[C@H](C)C(F)(F)F)cc1OC(F)F (single isomer, unassigned) [Example 72, 5-Chloro-1-(3-(difluoromethoxy)-5-((S*)-3,3,3-trifluoro-2-methylpropyl)pyridin-2-yl)-2-ethyl-N-(((1r,4S)-4-(methylsulfonyl)cyclohexyl)methyl)-1H-imidazole-4-carboxamide]
full-length human RORγt
  inhibition at 3 µM: 98%
  IC50: 75 nM
[1]
  Kd: 9.8 nM

## CCc1nc(C(=O)NC[C@H]2CC[C@H](S(C)(=O)=O)CC2)c(C)n1-c1ncc(C[C@H](C)C(F)(F)F)cc1OC(F)F (single isomer, unassigned) [Example 73, 1-(3-(Difluoromethoxy)-5-((S*)-3,3,3-trifluoro-2-methylpropyl)pyridin-2-yl)-2-ethyl-5-methyl-N-(((1r,4S)-4-(methylsulfonyl)cyclohexyl)methyl)-1H-imidazole-4-carboxamide]
full-length human RORγt
  inhibition at 1 µM: 80%
  IC50: 110 nM
[1]
  Kd: 38 nM

## CCc1nc(C(=O)NC[C@H]2CC[C@H](S(C)(=O)=O)CC2)c(Cl)n1-c1ncc(C[C@@H](C)C(F)(F)F)cc1OC(F)F (single isomer, unassigned) [Example 78, 5-Chloro-1-(3-(difluoromethoxy)-5-((R*)-3,3,3-trifluoro-2-methylpropyl)pyridin-2-yl)-2-ethyl-N-(((1r,4R)-4-(methylsulfonyl)cyclohexyl)methyl)-1H-imidazole-4-carboxamide]
full-length human RORγt
  inhibition at 1 µM: 94%
  IC50: 96 nM
[1]
  Kd: 7 nM

## CCc1nc(C(=O)NC[C@]2(O)CC[C@@H](S(C)(=O)=O)CC2)c(Cl)n1-c1ncc(C[C@@H](C)C(F)(F)F)cc1OC(F)F (single isomer, unassigned) [Example 79, 5-Chloro-1-(3-(difluoromethoxy)-5-((R*)-3,3,3-trifluoro-2-methylpropyl)pyridin-2-yl)-2-ethyl-N-(((1s,4S)-1-hydroxy-4-(methylsulfonyl)cyclohexyl)methyl)-1H-imidazole-4-carboxamide]
full-length human RORγt
  inhibition at 3 µM: 84%
  IC50: 220 nM
[1]
  Kd: 26 nM

## CCc1nc(C(=O)NC[C@H]2CC[C@H](S(C)(=O)=O)CC2)c(C)n1-c1ncc(C[C@@H](C)C(F)(F)F)cc1OC(F)F (single isomer, unassigned) [Example 80, 1-(3-(Difluoromethoxy)-5-((R*)-3,3,3-trifluoro-2-methylpropyl)pyridin-2-yl)-2-ethyl-5-methyl-N-(((1r,4R)-4-(methylsulfonyl)cyclohexyl)methyl)-1H-imidazole-4-carboxamide]
full-length human RORγt
  inhibition at 3 µM: 113%
  IC50: 54 nM
[1]
  Kd: 58 nM

## CCc1nc(C(=O)NC[C@H]2CC[C@H](S(C)(=O)=O)CC2)c(Cl)n1-c1c(F)cc(C[C@H](C)C(F)(F)F)cc1F (single isomer, unassigned) [Example 86, 5-Chloro-1-(2,6-difluoro-4-((S*)-3,3,3-trifluoro-2-methylpropyl)phenyl)-2-ethyl-N-(((1r,4S)-4-(methylsulfonyl)cyclohexyl)methyl)-1H-imidazole-4-carboxamide]
full-length human RORγt
  IC50: 23 nM
  inhibition at 0.67 µM: 68%
[1]
  Kd: 5.3 nM

## CCc1nc(C(=O)NC[C@H]2CC[C@H](S(C)(=O)=O)CC2)c(Cl)n1-c1c(F)cc(C[C@@H](C)C(F)(F)F)cc1F (single isomer, unassigned) [Example 87, 5-Chloro-1-(2,6-difluoro-4-((R*)-3,3,3-trifluoro-2-methylpropyl)phenyl)-2-ethyl-N-(((1r,4R)-4-(methylsulfonyl)cyclohexyl)methyl)-1H-imidazole-4-carboxamide]
full-length human RORγt
  IC50: 18 nM
  inhibition at 0.67 µM: 66%
[1]
  Kd: 3.8 nM

## CCc1nc(C(=O)NC[C@]2(O)CC[C@@H](S(C)(=O)=O)CC2)c(Cl)n1-c1ccc(CC(C)C)cc1OC (single isomer, unassigned) [Example 91, 5-Chloro-2-ethyl-N-(((1s,4S)-1-hydroxy-4-(methylsulfonyl)cyclohexyl)methyl)-1-((S*)-4-isobutyl-2-methoxyphenyl)-1H-imidazole-4-carboxamide]
full-length human RORγt
  IC50: 360 nM
full-length human RORγt; read-out: RORγt (FL) Reporter Assay A or B, % inhibition, 2 μM compound concentration (**)
  inhibition at 2 µM: 42%
[1]
  Kd: 620 nM

From patent publication US11345666B2, “Phenyl and pyridinyl substituted imidazoles as modulators of RORγT” (Janssen Pharmaceutica NV, priority 2018, dated 2022)
